# According to patent US20250388602A1 (Genase Therapeutics B.V., priority 2022, published 2025):
# Columns and labels:
# in vitro [1] = details: for HLM % remaining: % remaining at 60 min, 1 μM; for half-life at 1 μM: both, human
# Description: Human Liver Microsomal metabolic stability: The microsomal metabolic stability assay utilized pooled human liver microsomes (mixed gender, BD Gentest), with supplemented cofactors NADPH and UDPGA (Solarbio S&T Co., LTD). Two separate experiments were performed as follows: • a) With cofactors (NADPH & UDPGA): 25 μL of 10 mM NADPH and 25 μL of 20 mM UDPGA were added to 197.5 μL of reaction solution (phosphate buffer (final concentration in assay 100 mM), MgCl2 (final concentration in assay (5 mM)), alamethacin (final concentration in assay 0.025 mg/mL) and microsomes (final concentration in assay 0.5 mg/mL). • b) Without cofactors (NADPH & UDPGA): 50 μL of H2O was added to 197.5 μL of reaction solution.
# The mixture was pre-warmed at 37° C. for 10 minutes. The reaction was started with the addition of 2.5 μL of 100 μM control compound or test compound solutions. Diclofenac was used as positive control in this study. The final concentration of control compound and test compounds was 1 μM. Aliquots of 25 μL were taken from the reaction solution at 0.5, 5, 15, 30 and 60 minutes. The reaction was stopped by the addition of 5 volumes of cold acetonitrile containing internal standards. Samples were centrifuged at 3,220 g for 40 minutes. An aliquot of 100 μL of the supernatant was mixed with 100 μL of ultra-pure H2O and then used for LC-MS/MS analysis. Peak areas were determined from extracted ion chromatograms. Percent parent remaining was calculated from the area ratio of test compound. The slope value was determined by linear regression of the natural logarithm of percent parent remaining versus incubation time curve.
# (§1) Peak areas were determined from extracted ion chromatograms to determine the in vitro half-life (t½) of parent compound by regression analysis of the percent parent disappearance vs. time curve. The in vitro half-life (in vitro t½) was determined from the slope value (in vitro t½=−0.693/k). All calculations were carried out using Microsoft Excel.
# in vitro [2] = details: for hHEPs % remaining: 1 μM
# Description: Human Hepatocyte metabolic stability: Human hepatocytes (X008000, BioIVT) were freshly thawed prior to the incubations with test compound. Hepatocytes were transferred to 50 mL conical tubes and centrifuged 10 min at 100 g. Thawing medium was removed and replaced by preheated (37° C.) incubation medium (William's E Medium supplemented with GlutaMAX), to yield a hepatocyte density ˜1.5×10^6 cells/mL. Cell viability was determined using AO/PI staining and hepatocytes were diluted using incubation medium to a working density of 0.5×10^6 viable cells/mL. 198 μL of hepatocytes were added into each well of a 96-well plate and placed in the incubator to allow the hepatocytes to warm for 10 minutes. 2 μL test compound or positive control was placed into respective wells of the 96-well plate (final concentration test compound 1 μM) to start the reaction. The plate was returned to the incubator and 25 μL aliquots of the well contents were removed at time points of 0, 15, 30, 60, 90 and 120 minutes. The aliquots were mixed with 6 volumes (150 μL) of acetonitrile containing internal standards (100 nM alprazolam, 200 nM caffeine, and 100 nM tolbutamide) to terminate the reaction. The plate was centrifuged for 20 minutes at 3,200 g. Aliquots of 150 μL of the supernatants were used for LC/MS/MS analysis. All incubations were performed in duplicate.
# as §1
# recombinant human DHODH = recombinant human DHODH (Homo sapiens (Human), UniProt Q02127); test: DHODH enzyme assay (Assay A), DCIP absorbance; format: biochemical; details: bins ≥10 nM-<100 nM and <10 nM; read-out: IC50 DHODH inhibition activity
# Description: Inhibition of human dihydroorotate dehydrogenase (DHODH) by example compounds as described herein was determined using one of two assays as described below.
# DHODH enzyme assays were performed with 6 nM recombinant human DHODH (purified essentially as described by Walse et al., Biochemistry, 47, 8929-8936 (2008)). The reaction mixture consisted of 1 mM DL-dihydroorotic acid (#D7003, Sigma-Aldrich), 100 μM 3,4-dimethoxy-5-methyl-p-benzoquinone (#D9150, Sigma-Aldrich), and 100 μM 2,6-dichlorophenolindophenol sodium salt (DCIP) (#D1878, Sigma-Aldrich) in enzyme buffer (50 mM Tris-HCl pH 8.0, 0.1% Triton X-100, 150 mM KCl). A stock solution of 20 mM DCIP was prepared in enzyme buffer and filtered through Whatman paper just before use. Reactions were performed in a total volume of 100 μL, consisting of 1 μL of compound, 49 μL of enzyme and 50 μL of reaction mixture. Loss in absorbance by chromogen DCIP was measured at 595 nm following a 70 minute incubation at 32° C.
# MOLM-13 cells = test: MOLM-13 cell viability (Assay B), Cell Titer-Glo; format: cell-based; details: Homo sapiens, MOLM-13; 72 hours; bins ≥10 nM-<100 nM and <10 nM; read-out: IC50 MOLM13 inhibition activity
# Description: MOLM-13 cells (an acute myeloid leukemia cell line) were plated in RPMI supplied with 10% FBS and 1% Pen/Strep in 384-well plates at 1,000 cells per well on day 0. On day 1, treatment of the cells with compound (concentration range 10E-5 and 6E-12 M) was initiated in the presence or absence of 100 μM uridine. After 72 hours incubation of the cells with or without test compound, the number of viable cells per well was assessed by Cell Titer-Glo Luminescent Cell Viability Assay (Promega, Madison, WI, USA). […] Each condition was tested in duplicate and the potency of test compounds was determined from two independent experiments.
# Sequence of recombinant human DHODH (Q02127 whole entry): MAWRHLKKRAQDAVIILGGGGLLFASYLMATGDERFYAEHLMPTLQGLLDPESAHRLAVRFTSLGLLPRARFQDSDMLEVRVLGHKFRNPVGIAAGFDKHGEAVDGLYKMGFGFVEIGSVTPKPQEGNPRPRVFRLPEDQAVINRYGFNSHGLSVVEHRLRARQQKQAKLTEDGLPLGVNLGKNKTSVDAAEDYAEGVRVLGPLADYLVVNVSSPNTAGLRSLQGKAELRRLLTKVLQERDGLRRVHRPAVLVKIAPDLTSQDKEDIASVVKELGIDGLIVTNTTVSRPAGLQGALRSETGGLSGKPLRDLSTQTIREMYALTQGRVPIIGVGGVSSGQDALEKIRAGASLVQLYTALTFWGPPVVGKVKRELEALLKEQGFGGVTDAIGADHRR
SMILES,HLM % remaining (in vitro [1]),half-life at 1 μM (in vitro [1]; pooled human liver microsomes),"half-life at 1 μM (in vitro [2]; human, hepatocytes)",IC50 (recombinant human DHODH),half-life at 1 μM (in vitro [1]; pooled liver microsomes),IC50 (MOLM-13 cells),hHEPs % remaining (in vitro [2]; % remaining at 120 min),"hHEPs % remaining (in vitro [2]; human, hepatocytes, 2 h)"
"CCc1c(C(=O)N[C@@H]2COCc3c2cnn3-c2ccccc2F)n[nH]c1C [Ex-44, (S)-4-ethyl-N-(1-(2-fluorophenyl)-1,4,5,7-tetrahydropyrano[3,4-c]pyrazol-4-yl)-5-methyl-1H-pyrazole-3-carboxamide]",92%,> 6.08 h,9.35 h,,,,,
"CCc1c(C(=O)N[C@@H]2COCc3c2cnn3-c2ccccc2F)ncn1C [Ex-41, (S)-5-ethyl-N-(1-(2-fluorophenyl)-1,4,5,7-tetrahydropyrano[3,4-c]pyrazol-4-yl)-1-methyl-1H-imidazole-4-carboxamide]",100%,,> 10 h,10 to 100 nM,> 6.08 h,10 to 100 nM,100%,
"O=C(N[C@@H]1COCc2c1cnn2-c1ccccc1F)c1n[nH]c2c1CCCC2 [Ex-42, (S)—N-(1-(2-fluorophenyl)-1,4,5,7-tetrahydropyrano[3,4-c]pyrazol-4-yl)-4,5,6,7-tetrahydro-1H-indazole-3-carboxamide]",85%,,5.43 h,,3.93 h,,76%,
"O=C(N[C@@H]1COCc2c1cnn2-c1c(F)cccc1Cl)c1ncc2n1CCCC2 [Ex-47, (S)—N-(1-(2-chloro-6-fluorophenyl)-1,4,5,7-tetrahydropyrano[3,4-c]pyrazol-4-yl)-5,6,7,8-tetrahydroimidazo[1,5-a]pyridine-3-carboxamide]",75%,,9 h,< 10 nM,2.22 h,< 10 nM,84%,
"O=C(N[C@@H]1COCc2c1cnn2-c1ccccc1F)c1noc2c1CCCC2 [Ex-43, (S)—N-(1-(2-fluorophenyl)-1,4,5,7-tetrahydropyrano[3,4-c]pyrazol-4-yl)-4,5,6,7-tetrahydrobenzo[d]isoxazole-3-carboxamide]",92%,,> 10 h,,> 6.08 h,,93%,
"O=C(N[C@H]1COCc2c1cnn2-c1c(F)cccc1Cl)c1ncn2c1CCCC2 (single isomer, unassigned) [Ex-10]",100%,,> 10 h,,> 6.08 h,,100%,
"Cc1cnc(C(=O)N[C@@H]2COCc3c2cnn3-c2ccccc2F)cc1C [Ex-45, (S)—N-(1-(2-fluorophenyl)-1,4,5,7-tetrahydropyrano[3,4-c]pyrazol-4-yl)-4,5-dimethylpicolinamide]",88%,,4.77 h,,4.57 h,,72%,

# Results, then the compound that gave them:
HLM % remaining (in vitro [1]),half-life at 1 μM (in vitro [1]; pooled human liver microsomes),"half-life at 1 μM (in vitro [2]; human, hepatocytes)",IC50 (recombinant human DHODH),half-life at 1 μM (in vitro [1]; pooled liver microsomes),IC50 (MOLM-13 cells),hHEPs % remaining (in vitro [2]; % remaining at 120 min),"hHEPs % remaining (in vitro [2]; human, hepatocytes, 2 h)",SMILES
91%,,> 10 h,10 to 100 nM,> 6.08 h,10 to 100 nM,100%,,"O=C(N[C@@H]1COCc2c1cnn2-c1c(F)cccc1F)c1ncn2c1CCCC2 [Ex-59, (S)—N-(1-(2,6-difluorophenyl)-1,4,5,7-tetrahydropyrano[3,4-c]pyrazol-4-yl)-5,6,7,8-tetrahydroimidazo[1,5-a]pyridine-1-carboxamide]"
94%,,> 10 h,10 to 100 nM,> 6.08 h,10 to 100 nM,,100%,"O=C(N[C@@H]1COCc2c1cnn2-c1ccccc1C(F)(F)F)c1ncn2c1CCCC2 [Ex-55, (S)—N-(1-(2-(trifluoromethyl)phenyl)-1,4,5,7-tetrahydropyrano[3,4-c]pyrazol-4-yl)-5,6,7,8-tetrahydroimidazo[1,5-a]pyridine-1-carboxamide]"
92%,,> 10 h,10 to 100 nM,> 6.08 h,10 to 100 nM,100%,,"COc1ccccc1-n1ncc2c1COC[C@H]2NC(=O)c1ncn2c1CCCC2 [Ex-54, (S)—N-(1-(2-methoxyphenyl)-1,4,5,7-tetrahydropyrano[3,4-c]pyrazol-4-yl)-5,6,7,8-tetrahydroimidazo[1,5-a]pyridine-1-carboxamide]"
